Here are results for 17 compounds from patent publication US9278982B2, “Targeting human thymidylate kinase induces DNA repair toxicity in malignant tumor cells” (NATIONAL YANG-MING UNIVERSITY, priority 2010, dated 2016).

SMILES strings stand for the structures.

This assay concerns the target T1, TMPK (Homo sapiens, UniProt P23919).
T1 sequence (P23919 1-212): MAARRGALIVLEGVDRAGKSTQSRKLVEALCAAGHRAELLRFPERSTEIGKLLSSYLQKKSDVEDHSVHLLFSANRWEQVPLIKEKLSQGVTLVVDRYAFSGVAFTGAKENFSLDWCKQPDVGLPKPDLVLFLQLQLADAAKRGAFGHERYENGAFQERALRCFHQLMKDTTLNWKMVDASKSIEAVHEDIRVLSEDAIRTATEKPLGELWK
In words: In vitro TMPK inhibitory activity of TMPK inhibitor derivatives (inhibition yield). The following applies: n=3 or 6, read-out: inhibition yield, normalized to compound 21 (YMU1) = 100%. Also on record: GST (N, cleaved yes); made in house; host or cells: E. coli JM109 (pGEX-2T-hTMPK), inferred. Type of assay: biochemical. An excerpt:
Chemical structures of the different TMPK inhibitor derivatives tested for in vitro TMPK inhibitory activity and in vivo doxorubicin sensitization activity (in MDA-MB231 cells) are depicted below.

Turning to `Cc1ccc2c(=O)[nH]sc2n1` [compound 3, 6-Methylisothiazolo[5,4-b]pyridin-3(2H)-one], the inhibition at 2 µM was 76.5%. Consider `CCOC(=O)N1CCN(C(=O)N2Cc3ccccc3C2=O)CC1` [compound 5, Ethyl 4-(1-oxoisoindoline-2-carbonyl)piperazine-1-carboxylate], for which the inhibition at 2 µM came to 92.9%.

For the compound `COC(=O)Cn1sc2ccccc2c1=O` [compound 6, Methyl 2-(3-oxobenzo[d]isothiazol-2(3H)-yl)acetate], the inhibition at 2 µM was found to be 96%. Still for that read-out and setting: to `O=C(O)Cn1sc2ccccc2c1=O` [compound 8, 2-(3-oxobenzo[d]isothiazol-2(3H)-yl)acetic acid] belongs 29.1%. As to `Cc1cc(C)c2c(=O)n(CC(=O)O)sc2n1` [compound 9, 2-(4,6-Dimethyl-3-oxoisothiazolo[5,4-b]pyridin-2(3H)-yl)acetic acid], the inhibition at 2 µM turned out to be 47%. `CCOC(=O)N1CCN(C(=O)Cn2sc3ccccc3c2=O)CC1` [compound 11, Ethyl 4-(2-(3-oxobenzo[d]isothiazol-2(3H)-yl)acetyl)piperazine-1-carboxylate]: the inhibition came to 100%. For the compound `O=C(Cn1sc2ccccc2c1=O)N1CCN(C(=O)OCc2ccccc2)CC1` [compound 13, Benzyl 4-(2-(3-oxobenzo[d]isothiazol-2(3H)-yl)acetyl)piperazine-1-carboxylate], the inhibition at 2 µM came out at 127%. Still for that read-out and setting: to `O=C(Cn1sc2ccccc2c1=O)N1CCN(C(=O)Oc2ccc([N+](=O)[O-])cc2)CC1` [compound 14, 4-Nitrophenyl 4-(2-(3-oxobenzo[d]isothiazol-2(3H)-yl)acetyl)piperazine-1-carboxylate] belongs 129%; to `C=CCN1CCN(C(=O)Cn2sc3ccccc3c2=O)CC1` [compound 15, 2-(2-(4-Allylpiperazin-1-yl)-2-oxoethyl)benzo[d]isothiazol-3(2H)-one], 102%. The same measure, in the same setting: next, `O=C(CN1C(=O)c2ccccc2S1(=O)=O)N1CCNCC1` [compound 16, 2-(2-Oxo-2-(piperazin-1-yl)ethyl)benzo[d]isothiazol-3(2H)-one 1,1-dioxide]: 11.8%; `CC(C)(C)OC(=O)N1CCN(C(=O)CN2C(=O)c3ccccc3S2(=O)=O)CC1` [compound 17, Tert-butyl 4-(2-(3-oxobenzo[d]isothiazol-2(3H)-yl)acetyl)piperazine-1-carboxylate 1,1-dioxide]: 10.1%. Consider `CC(C)(C)OC(=O)N1CCN(C(=O)CN2C(=O)c3ccccc3C2=O)CC1` [compound 18, Tert-Butyl 4-[2-(1,3-dioxo-1,3-dihydro-isoindol-2-yl)-acetyl]-piperazine-1-carboxylate], for which the inhibition at 2 µM stood at 51.4%. On to `Cc1cc(C)c2c(=O)n(CC(=O)N3CCNCC3)sc2n1` [compound 20, 4,6-Dimethyl-2-(2-oxo-2-(piperazin-1-yl)ethyl)isothiazolo[5,4-b]pyridin-3(2H)-one], for which the inhibition at 2 µM amounted to 99.5%.

On to `Cc1cc(C)c2c(=O)n(CC(=O)N3CCN(C(=O)OC(C)(C)C)CC3)sc2n1` [compound 22, Tert-butyl 4-(2-(4,6-dimethyl-3-oxoisothiazolo[5,4-b]pyridin-2(3H)-yl)acetyl) piperazine-1-carboxylate], for which the inhibition at 2 µM is 112%. On to `CCOC(=O)N1CCN(C(=O)CCCn2sc3ccccc3c2=O)CC1` [compound 23, Ethyl 4-(4-(3-oxobenzo[d]isothiazol-2(3H)-yl)butanoyl)piperazine-1-carboxylate], for which the inhibition at 2 µM was found to be 0%.

Regarding `O=C(Cn1sc2ccccc2c1=O)N1CCN(C(=O)Cn2sc3ccccc3c2=O)CC1` [compound 24, 2,2′-(2,2′-(piperazine-1,4-diyl)bis(2-oxoethane-2,1-diyl))dibenzo[d]isothiazol-3(2H)-one], the inhibition at 2 µM was found to be 118%. The same measure, in the same setting: to `COC(=O)COc1nsc2nc(C)cc(C)c12` [compound 25, Methyl 2-(4,6-dimethylisothiazolo[5,4-b]pyridin-3-yloxy)acetate] belongs 7.8%.

Broadly, the inhibition is the change of the read-out against control, counted positive when it falls.
